In experiment [1] the target is T1, gluthathione reductase (GR) (Homo sapiens, UniProt P00390).
T1 sequence (P00390 44-522): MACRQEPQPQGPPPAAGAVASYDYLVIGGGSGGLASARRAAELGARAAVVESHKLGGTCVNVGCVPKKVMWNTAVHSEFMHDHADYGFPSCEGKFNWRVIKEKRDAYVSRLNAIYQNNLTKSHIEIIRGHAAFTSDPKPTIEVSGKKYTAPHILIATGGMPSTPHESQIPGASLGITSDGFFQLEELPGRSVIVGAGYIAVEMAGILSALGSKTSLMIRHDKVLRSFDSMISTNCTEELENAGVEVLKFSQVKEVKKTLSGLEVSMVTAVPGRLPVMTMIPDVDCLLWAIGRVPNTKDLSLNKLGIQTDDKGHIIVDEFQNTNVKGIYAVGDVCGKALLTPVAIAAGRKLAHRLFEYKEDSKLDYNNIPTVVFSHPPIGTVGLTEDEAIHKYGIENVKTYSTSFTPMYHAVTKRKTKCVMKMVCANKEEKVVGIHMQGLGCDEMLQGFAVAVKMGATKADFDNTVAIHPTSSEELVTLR
The experiment is described as follows: Inhibition of recombinant GR (GSSG assay). In kind it is biochemical. The method, boiled down:
(§1)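 Human TrxR1 (15 nM) or GR (2 nM) preincubated 15 min with compound, 250 μM NADPH, 0.1 mg/ml BSA in 50 mM Tris pH 7.5, 2 mM EDTA, 1% DMSO. Reaction started with 2.5 mM DTNB (TrxR1, A412) or 1 mM GSSG (GR, A340). Percent activity relative to DMSO and no-enzyme blanks.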

The target in experiment [2] is T2, recombinant thioredoxin reductase 1 (TrxR1) (Homo sapiens, UniProt Q16881).
T2 sequence (Q16881 1-649): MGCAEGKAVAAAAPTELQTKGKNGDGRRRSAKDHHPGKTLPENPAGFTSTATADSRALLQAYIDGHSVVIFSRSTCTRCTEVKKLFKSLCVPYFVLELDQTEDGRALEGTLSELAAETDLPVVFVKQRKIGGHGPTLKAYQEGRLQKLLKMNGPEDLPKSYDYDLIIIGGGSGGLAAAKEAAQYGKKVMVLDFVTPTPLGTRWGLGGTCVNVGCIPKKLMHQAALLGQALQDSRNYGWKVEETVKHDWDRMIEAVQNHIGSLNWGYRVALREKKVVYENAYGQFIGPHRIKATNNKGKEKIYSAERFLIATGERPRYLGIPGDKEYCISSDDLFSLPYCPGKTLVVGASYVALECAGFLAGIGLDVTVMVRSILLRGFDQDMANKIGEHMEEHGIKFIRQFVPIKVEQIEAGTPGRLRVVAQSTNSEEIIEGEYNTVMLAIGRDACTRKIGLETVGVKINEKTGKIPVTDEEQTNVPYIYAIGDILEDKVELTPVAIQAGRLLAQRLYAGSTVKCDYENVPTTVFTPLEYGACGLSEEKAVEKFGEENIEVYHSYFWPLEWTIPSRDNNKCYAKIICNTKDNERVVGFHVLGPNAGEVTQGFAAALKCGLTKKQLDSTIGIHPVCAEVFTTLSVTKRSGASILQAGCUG
The experiment is described as follows: Inhibition of recombinant TrxR1 (DTNB assay). In kind it is biochemical. A digest of the protocol: as §1

Setting [3] is: Biological Example 1, 2 nM GR, 250 μM NADPH, 15 minutes incubation.
The mark [4] stands for this setting: Biological Example 4, assays of Biological Example 1.
The mark [5] stands for this setting: Biological Example 1, 15 nM TrxR1, 250 μM NADPH, 15 minutes incubation, read-out: TrxR inhibition.
The mark [6] stands for this setting: Biological Example 4, assays of Biological Example 1, read-out: TrxR Inhibition.

Where a name gives a salt, the structure may show the parent alone. Read-outs that look alike come from different tables or passages of the source.

On to `O=C1C=CC2C3C(=O)N(c4ccccc4)C(=O)C3C1N2Cc1ccc(Br)cc1` (stereo not drawn) [Example 6, 11-(4-Bromobenzyl)-4-phenyl-4,11-diazatricyclo[5.3.1.0^2,6]undec-9-ene-3,5,8-trione Trifluoroacetate], for which the IC50 worked out at 61.9 µM in experiment [1] (setting [3]), 31.3 µM in experiment [1] (setting [4]), 2120 nM in experiment [2] (setting [5]) and 570 nM in experiment [2] (setting [6]).

For the molecule `O=C1C=CC2C3C(=O)N(c4ccccc4)C(=O)C3C1N2Cc1ccc(F)cc1` (stereo not drawn) [Example 8, 11-(4-Fluorobenzyl)-4-phenyl-4,11-diazatricyclo[5.3.1.0^2,6]undec-9-ene-3,5,8-trione Trifluoroacetate], the IC50 was 28.5 µM in experiment [1] (setting [4]) and 2030 nM in experiment [2] (setting [6]).

`CC1=CC(=O)C2C3C(=O)N(c4ccccc4)C(=O)C3C1N2Cc1ccccc1` (stereo not drawn) [Example 12, 9-Benzyl-7-methyl-2-phenyl-3a,4,8,8a-tetrahydro-4,8-epiminocyclohepta[c]-pyrrole-1,3,5(2H)-trione Trifluoroacetate]: the IC50 in experiment [1] (setting [4]) is 41.4 µM; in experiment [2] (setting [6]) it was 1250 nM.

Regarding `CC1=CC(=O)[C@@H]2C3C(=O)N(C4CCCCC4)C(=O)C3[C@H]1N2Cc1ccccc1` (stereo partly drawn) [Example 13, endo-11-Benzyl-4-cyclohexyl-10-methyl-4,11-diazatricyclo[5.3.1.0^2,6]undec-9-ene-3,5,8-trione Trifluoroacetate], the IC50 in experiment [1] (setting [4]) is greater than 100 µM; in experiment [2] (setting [6]), 7820 nM.

For `CC1=CC(=O)C2C3C(=O)N(Cc4ccccc4)C(=O)C3C1N2Cc1ccccc1` (stereo not drawn) [Example 15, 4,11-Dibenzyl-10-methyl-4,11-diazatricyclo[5.3.1.0^2,6]undec-9-ene-3,5,8-trione Trifluoroacetate], the IC50 in experiment [1] (setting [3]) was greater than 100 µM; in experiment [1] (setting [4]), greater than 100 µM; in experiment [2] (setting [5]) it was 1450 nM; in experiment [2] (setting [6]), 3330 nM.

Take `O=C1C=CC2C3C(=O)N(c4ccccc4)C(=O)C3C1N2Cc1ccccc1Br` (stereo not drawn) [Example 20, 11-(2-Bromobenzyl)-4-phenyl-4,11-diazatricyclo[5.3.1.0^2,6]undec-9-ene-3,5,8-trione Trifluoroacetate]: the IC50 in experiment [1] (setting [3]) was greater than 100 µM; in experiment [1] (setting [4]) it was greater than 100 µM; in experiment [2] (setting [5]), 3700 nM; in experiment [2] (setting [6]) it was 940 nM.

As to `O=C1C=C[C@H]2C3C(=O)N(c4ccccc4)C(=O)C3[C@@H]1N2Cc1cccc(F)c1` (stereo partly drawn) [Example 28], the IC50 in experiment [1] (setting [4]) was 29.8 µM; in experiment [2] (setting [6]), 2710 nM.

As to `O=C1C=CC2C3C(=O)N(c4ccccc4)C(=O)C3C1N2Cc1cccc(F)c1F` (stereo not drawn) [Example 31, exo-11-(2,3-Difluorobenzyl)-4-phenyl-4,11-diazatricyclo[5.3.1.0^2,6]undec-9-ene-3,5,8-trione Trifluoroacetate], the IC50 is greater than 100 µM in experiment [1] (setting [4]) and 1060 nM in experiment [2] (setting [6]).

For `O=C1C=CC2C3C(=O)N(c4ccccc4)C(=O)C3C1N2Cc1cccc(C(F)(F)F)c1` (stereo not drawn) [Example 32, 4-Phenyl-11-(3-trifluorobenzyl)-4,11-diazatricyclo[5.3.1.0^2,6]undec-9-ene-3,5,8-trione Trifluoroacetate], the IC50 in experiment [1] (setting [4]) came out at 35.8 µM; in experiment [2] (setting [6]), 1440 nM.

For `Cc1cc(C)cc(CN2C3C=CC(=O)C2C2C(=O)N(c4ccccc4)C(=O)C23)c1` (stereo not drawn) [Example 33, exo-11-(3,5-Dimethylbenzyl)-4-phenyl-4,11-diazatricyclo[5.3.1.0^2,6]undec-9-ene-3,5,8-trione Trifluoroacetate], the IC50 in experiment [1] (setting [4]) was greater than 100 µM; in experiment [2] (setting [6]), 1330 nM.

Consider `O=C1C=CC2C3C(=O)N(c4ccccc4)C(=O)C3C1N2Cc1cccc(Br)c1` (stereo not drawn) [Example 34, exo-11-(3-Bromobenzyl)-4-phenyl-4,11-diazatricyclo[5.3.1.0^2,6]undec-9-ene-3,5,8-trione Trifluoroacetate], for which the IC50 in experiment [1] (setting [4]) was greater than 100 µM; in experiment [2] (setting [6]) it was 1230 nM.

`Cc1cccc(CN2C3C=CC(=O)C2C2C(=O)N(c4ccccc4)C(=O)C23)c1F` (stereo not drawn) [Example 35, exo-11-(2-Fluoro-3-methylbenzyl)-4-phenyl-4,11-diazatricyclo[5.3.1.0^2,6]-undec-9-ene-3,5,8-trione Trifluoroacetate]: the IC50 is greater than 100 µM in experiment [1] (setting [4]) and 1060 nM in experiment [2] (setting [6]).

`N#Cc1cccc(CN2C3C=CC(=O)C2C2C(=O)N(c4ccccc4)C(=O)C23)c1` (stereo not drawn) [Example 36, 3-((4-Phenyl-3,5,10-trioxo-4,11-diazatricyclo[5.3.1.0^2,6]undec-8-en-11-yl)-methyl)benzonitrile Trifluoroacetate]: the IC50 in experiment [1] (setting [4]) was 68.5 µM; in experiment [2] (setting [6]) it was 1470 nM.

With `Cc1cc(CN2C3C=CC(=O)C2C2C(=O)N(c4ccccc4)C(=O)C23)ccc1F` (stereo not drawn) [Example 37, exo-11-(4-Fluoro-3-methylbenzyl)-4-phenyl-4,11-diazatricyclo[5.3.1.0^2,6]-undec-9-ene-3,5,8-trione Trifluoroacetate], the IC50 in experiment [1] (setting [4]) is greater than 100 µM; in experiment [2] (setting [6]), 930 nM.

In the case of `Cc1ccc(F)c(CN2C3C=CC(=O)C2C2C(=O)N(c4ccccc4)C(=O)C23)c1F` (stereo not drawn) [Example 38, endo-11-(2,6-Difluoro-3-methylbenzyl)-4-phenyl-4,11-diazatricyclo-[5.3.1.0^2,6]undec-9-ene-3,5,8-trione Trifluoroacetate], the results for the IC50 in experiment [1] (setting [4]) and in experiment [2] (setting [6]) were 12.3 µM and 1360 nM, respectively.

Regarding `Cc1ccc(F)c(CN2C3C=CC(=O)C2C2C(=O)N(c4ccccc4)C(=O)C23)c1F` (stereo not drawn) [Example 39, exo-11-(2,6-Difluoro-3-methylbenzyl)-4-phenyl-4,11-diazatricyclo[5.3.1.0^2,6]-undec-9-ene-3,5,8-trione Trifluoroacetate], the IC50 in experiment [1] (setting [4]) is greater than 100 µM; in experiment [2] (setting [6]), 1290 nM.

For `O=C1C=CC2C3C(=O)N(c4ccccc4)C(=O)C3C1N2Cc1cc(Cl)ccc1F` (stereo not drawn) [Example 40, exo-11-(5-Chloro-2-fluorobenzyl)-4-phenyl-4,11-diazatricyclo[5.3.1.0^2,6]-undec-9-ene-3,5,8-trione Trifluoroacetate], the values for the IC50 in experiment [1] (setting [4]) and in experiment [2] (setting [6]) were 31.6 µM and 770 nM, respectively.

Regarding `O=C1C=CC2C3C(=O)N(c4ccccc4)C(=O)C3C1N2Cc1cccc(Cl)c1` (stereo not drawn) [Example 41, endo-11-(3-Chlorobenzyl)-4-phenyl-4,11-diazatricyclo[5.3.1.0^2,6]undec-9-ene-3,5,8-trione Trifluoroacetate], the IC50 in experiment [1] (setting [4]) came to 49.5 µM; in experiment [2] (setting [6]) it was 2350 nM.

Turning to `O=C1C=CC2C3C(=O)N(c4ccccc4)C(=O)C3C1N2Cc1cccc(Cl)c1` (stereo not drawn) [Example 42, exo-11-(3-Chlorobenzyl)-4-phenyl-4,11-diazatricyclo[5.3.1.0^2,6]undec-9-ene-3,5,8-trione Trifluoroacetate], the IC50 in experiment [1] (setting [4]) came out at 76.4 µM; in experiment [2] (setting [6]), 760 nM.

As to `O=C1C=CC2C3C(=O)N(c4ccccc4)C(=O)C3C1N2Cc1cc(F)cc(F)c1` (stereo not drawn) [Example 43, 11-(3,5-Difluorobenzyl)-4-phenyl-4,11-diazatricyclo[5.3.1.0^2,6]undec-9-ene-3,5,8-trione Trifluoroacetate], the IC50 came out at 91.7 µM in experiment [1] (setting [4]) and 1590 nM in experiment [2] (setting [6]).

In the case of `Cc1cccc(CN2[C@@H]3C(=O)C=C[C@H]2C2C(=O)N(C)C(=O)C23)c1` (stereo partly drawn) [Example 52], the IC50 in experiment [1] (setting [4]) was greater than 100 µM; in experiment [2] (setting [6]) it was 1810 nM.

On to `CN1C(=O)C2C(C1=O)C1C(=O)C=CC2N1C` (stereo not drawn) [Example 60, exo-4,11-Dimethyl-4,11-diazatricyclo[5.3.1.0^2,6]undec-9-ene-3,5,8-trione Trifluoroacetate], for which the IC50 was greater than 100 µM in experiment [1] (setting [4]) and 15400 nM in experiment [2] (setting [6]).

With `Cc1cccc(CN2[C@@H]3C(=O)C=C[C@H]2C2C(=O)N(c4cccc(N5CCOCC5)c4)C(=O)C23)c1` (stereo partly drawn) [Example 69, endo-11-(3-Methylbenzyl)-4-(3-(4-morpholino)phenyl)-4,11-diazatricyclo-[5.3.1.0^2,6]undec-9-ene-3,5,8-trione Trifluoroacetate], the IC50 is greater than 100 µM in experiment [1] (setting [3]), greater than 100 µM in experiment [1] (setting [4]), 7400 nM in experiment [2] (setting [5]) and 4150 nM in experiment [2] (setting [6]).

The record behind these values is patent US10881653B2, “Tricyclic compounds and their use in the treatment of cancer” (The United States of America, as represented by the …, priority 2015, dated 2021).
